{"source": "patent US4327100A", "about": "“2-(Alkoxy-phenyl)-imidazo(4,5-b)pyridines and salts thereof” (Boehringer Ingelheim GmbH, priority 1979, dated 1982)", "assay_type_in_all_cases": "in vivo", "key": {"anesthetized cat": {"tested_on": "anesthetized cat", "test": "Effect on blood pressure and positive inotropic activity in the anesthetized cat", "conditions": "2.0 mg/kg i.v., average value, at least 3 cats", "protocol": "1. Determination of the effect on blood pressure and of the positive inotropic activity in the anesthetized cat\nThe test was performed on cats which were anesthetized with pentobarbital sodium (40 mg/kg i.p.). The animals breathed spontaneously. The arterial blood pressure was measured in the aorta abdominalis by a Statham pressure transducer (P 23 Dc). The positive inotropic effect was determined by measuring the pressure in the left ventricle by means of a catheter tip manometer (Millar PC 360 A). The contractility parameter (dp/dtmax) was registered by means of an analog differentiating circuit.\nThe test compound was injected into the vena femoralis. Physiological sodium chloride solution or polydiol 200 was used as solvent. Each substance was tested in at least 3 cats, dose 2 mg/kg i.v."}, "[1]": {"test": "Acute toxicity in white mice after oral administration", "conditions": "mouse, in vivo, single oral dose 300 mg/kg, observation time 14 days", "protocol": "(§1) The acute toxicity was determined in white mice after oral administration of a single dose of 300 mg/kg (observation time: 14 days)."}, "white mice": {"tested_on": "white mice", "test": "Acute toxicity in white mice after oral administration", "conditions": "single oral dose 300 mg/kg, observation time 14 days", "protocol": "as §1"}}, "data": [{"smiles": "COc1ccc(-c2nc3ncccc3[nH]2)c(OCC[S+]([O-])c2ccc(Cl)cc2)c1", "note": "(centres unmarked) [B, 2-{2-[2-(4-Chlorophenylsulfinyl)-ethoxy]-4-methoxyphenyl}-imidazo-[4,5-b]pyridine]", "values": [{"measurement": "Change in blood pressure, second value of the printed pair (diastolic, not labelled in the patent)", "setting": "anesthetized cat", "result": 42, "unit": "mmHg"}, {"measurement": "LD50 at 336 h", "setting": "[1]", "result": "> 300", "unit": "mg/kg"}, {"measurement": "animals died", "setting": "white mice", "result": "0 out of 6"}]}, {"smiles": "COc1ccc(-c2nc3ncccc3[nH]2)c(OCC[S+]([O-])c2cc(OC)c(OC)cc2C)c1", "note": "(centres unmarked) [D, 2-{2-[2-(2-Methyl-4,5-dimethoxyphenylsulfinyl)-ethoxy]-4-methoxyphenyl}-imidazo[4,5-b]pyridine]", "values": [{"measurement": "Change in blood pressure, second value of the printed pair (diastolic, not labelled in the patent)", "setting": "anesthetized cat", "result": 5, "unit": "mmHg"}, {"measurement": "LD50 at 336 h", "setting": "[1]", "result": "> 300", "unit": "mg/kg"}, {"measurement": "animals died", "setting": "white mice", "result": "0 out of 6"}]}, {"smiles": "COc1ccc(-c2nc3ncccc3[nH]2)c(OCC[S+]([O-])c2ccc(C)cc2)c1", "note": "(centres unmarked) [C, 2-{2-[2-(4-Methylphenylsulfinyl)-ethoxy]-4-methoxyphenyl}-imidazo[4,5-b]pyridine]", "values": [{"measurement": "Change in blood pressure, second value of the printed pair (diastolic, not labelled in the patent)", "setting": "anesthetized cat", "result": 45, "unit": "mmHg"}, {"measurement": "LD50 at 336 h", "setting": "[1]", "result": "> 300", "unit": "mg/kg"}, {"measurement": "animals died", "setting": "white mice", "result": "0 out of 6"}]}, {"smiles": "COc1ccc(-c2nc3ncccc3[nH]2)c(OCC[S+]([O-])c2ccccc2)c1", "note": "(centres unmarked) [A, 2-[2-(2-Phenylsulfinyl-ethoxy)-4-methoxyphenyl]imidazo[4,5-b]pyridine]", "values": [{"measurement": "Change in blood pressure, second value of the printed pair (diastolic, not labelled in the patent)", "setting": "anesthetized cat", "result": 20, "unit": "mmHg"}]}, {"smiles": "COc1ccc(-c2nc3ncccc3[nH]2)c(OCC[S+]([O-])c2ccc([N+](=O)[O-])cc2)c1", "note": "(centres unmarked) [E, 2-{2-[2-(4-Nitrophenylsulfinyl)-ethoxy]-4-methoxyphenyl}-imidazo[4,5-b]pyridine]", "values": [{"measurement": "Change in blood pressure, second value of the printed pair (diastolic, not labelled in the patent)", "setting": "anesthetized cat", "result": 32, "unit": "mmHg"}]}]}
